# Measured values as given in patent US11045473B2, “Compositions and methods for therapy of prostate cancer using drug combinations to target polyamine biosynthesis and related pathways” (Health Research, Inc., priority 2015, dated 2021).
# Columns and labels:
# PC3 = assay: Proliferation / IC50 by trypan blue cell counts, PC3; assay type: cell-based, human; conditions: for IC50: Homo sapiens; for effect on cell growth: 8 and 12 days
# Procedure: (§1) A transition state analog inhibitor of MTAP, Methylthio-DaDMe-Immucillin-A (MTDIA) was previously described and shown to be effective following a 6 or 12 day treatment at ˜10 and 100 nM MTDIA when 20 uM MTA was added to the media in both lung adenocarcinoma cell lines and head and neck squamous carcinoma cell lines, respectively [Basu I, et al. J Biol Chem. 2007; 282:21477-21486; Basu I, et al. J Biol Chem. 2011; 286:4902-491]. 32]. We synthesized MTDIA and the analytical data on the synthesized compound are shown in FIGS. 8A and 8B with the scheme used for synthesis shown in FIG. 6. […] In all three cell lines, the proliferation curves after 12 days of treatment show an IC50 of MTDIA>1 mM in the absence of MTA (FIG. 5B), but in the 10-100 nM range with the addition of 10 or 20 μM MTA. […] Nanomolar range IC50 values are highlighted.
# (§2) IC50—The MTAP inhibitor (3R,4S)-1-[(9-Deaza-adenin-9-yl)methyl]-3-hydroxy-4-(methylthiomethyl)-pyrrolidine, or MT-DADMe-Immucillin-A (MTDIA) was synthesized following the synthesis scheme shown in FIG. 6 and based on a known approach. Cells were seeded at 125,000 cells/well (PC-3, DU145, LNCaP) in triplicate in 2 mLs of RPMI medium supplemented with 10% fetal bovine serum, and 1% penicillin streptomycin. After 24 hours the MTDIA and/or MTA was added at the indicated concentrations. Both medium and drug were refreshed every 48 hours. Every 96 hours the cells were trypsinized, ˜2% of cells were removed and counted by trypan blue exclusion and the rest were replated into a larger vessel.
# DU145 = assay: Proliferation / IC50 by trypan blue cell counts, DU145; assay type: cell-based, human; conditions: for effect on cell growth: 8 and 12 days; for IC50: Homo sapiens
# Procedure: as §1, §2
# FaDu cells = assay: IC50 of MTDIA for FaDu cells; assay type: cell-based; conditions: Homo sapiens, 144 h, 6 day treatment, 20 uM MTA
# MTAP [1] = assay: Western blot of MTAP protein expression in FaDu; assay type: cell-based, human; conditions: 4 day IC25 and IC50 of MTDIA, presence or absence of MTA
# Procedure: (§3) FIG. 9. (A) Proliferation curves for LNCaP, DU145 and PC3 treated with MTDIA in the absence or presence of 10 or 20 uM MTA, for 4 and (B) 8 days. […] (C) Western blot analysis of FaDu, LNCaP, and DU145 cells after indicated treatments of MTA (0, 10, or 20 uM) or the respective 4 day IC25 and IC50 dose of MTDIA for each cell line plus or minus MTA immunoblotted with antibodies against MTAP, SMS, and SRM, with B-actin as a loading control. Western blot images are representative of biological triplicates.
# (§4) Western Blotting—Whole cell extracts were prepared in RIPA buffer (150 mM NaCl, 1.0% NP-40, 0.5% deoxycholate, 0.1% SDS, 50 mM Tris-HCl pH 8.0, 5 mM EDTA and 0.5 mM PMSF) supplemented with 1× proteinase inhibitor. Protein concentrations were determined by Bradford Assay (Thermo Scientific, Cat #1856209). […] MTAP for Westerns was purchased from Proteintech™ (Cat #11475-1-AP. SRM and SMS were purchased from Abcam® (Cat #ab111884 and ab156879). B-actin antibody for Westerns was purchased from Sigma-Aldrich (Cat #A5441) and GAPDH was from Santa Cruz Biotecnology Inc. (Cat #sc-25778). Films were scanned using the Biorad ChemiDoc XRS, and band intensities were calculated using Image Lab™. Intensity values were normalized to B-actin loading control band intensities and made relative to control treatment conditions.
# MTAP [2] = assay: Western blot of MTAP protein expression in LNCaP; assay type: cell-based, human; conditions: 4 day IC25 and IC50 of MTDIA, presence or absence of MTA
# Procedure: as §3, §4
# MTAP [3] = assay: Western blot of MTAP protein expression in DU145; assay type: cell-based, human; conditions: DU145, 4 day IC25 and IC50 of MTDIA, presence or absence of MTA
# Procedure: as §3, §4
# LNG53 cells = assay: Antiproliferative activity of MTDIA in LNCaP cells overexpressing SAT1 in Tet-off system; assay type: cell-based, human; conditions: (-) Tet conditions, Tet removed 24 hours prior to 96 hr MTDIA
# Procedure: Tet was removed 24 hours prior to 96 hr treatment with MTDIA. […] Cells were pre-treated with BENSpm for 24 hours followed by 96 hr treatment with MTDIA.
# We next analyzed whether the metabolic stress in CaP cells caused by high biosynthetic flux to maintain polyamine pools can be enhanced by increasing the activity of SAT1. We tested whether this could cause increased secretion of acetylated polyamines, putting intracellular pools in deficit, which should necessitate more biosynthesis, and should therefore potentiate any benefit of inhibiting the MSP. To conduct this analysis we used LNCaP cells that stably overexpress SAT1 in a Tet-off system (LNG53 cells, described in Kee, K., et al. J Biol Chem 279, 27050-27058 (2004)).
# [4] = test system: lung adenocarcinoma cell lines; conditions: 6 day treatment, 20 uM MTA added to the media; cited from earlier work
# [5] = test system: head and neck squamous carcinoma cell lines; conditions: 12 day treatment, 20 uM MTA added to the media; cited from earlier work
smiles,measurement,setting,value
"CSC[C@H]1CN(Cc2c[nH]c3c(N)ncnc23)C[C@@H]1O [MTDIA, (3R,4S)-1-[(9-Deaza-adenin-9-yl)methyl]-3-hydroxy-4-(methylthiomethyl)-pyrrolidine]",IC50,"PC3; PC-3, 96 h, PC3, 4 days, 0 μM MTA",> 1000 µM
same,IC50,"PC3; PC-3, 96 h, PC3, 4 days, 10 μM MTA",> 1000 µM
same,IC50,"PC3; PC-3, 96 h, PC3, 4 days, 20 μM MTA",300 µM
same,IC50,"PC3; PC-3, 192 h, PC3, 8 days, 0 μM MTA",> 1000 µM
same,IC50,"PC3; PC-3, 192 h, PC3, 8 days, 10 μM MTA",100 µM
same,IC50,"PC3; PC-3, 192 h, PC3, 8 days, 20 μM MTA",0.09 µM
same,IC50,"PC3; PC-3, 288 h, PC3, 12 days, 0 μM MTA",> 1000 µM
same,IC50,"PC3; PC-3, 288 h, PC3, 12 days, 10 μM MTA",80 µM
same,IC50,"PC3; PC-3, 288 h, PC3, 12 days, 20 μM MTA",0.082 µM
same,IC50,"PC3; PC-3, 288 h, PC3, 12 days, with 10 or 20 μM MTA",0.01 to 0.1 µM
same,effect on cell growth,"PC3; PC3, 100 nM MTDIA, with 20 μM MTA",dramatic effect on cell growth
same,effect on cell growth,"PC3; PC3, 100 nM MTDIA, without MTA",little to no effect
same,effect on growth,"PC3; PC3, 100 nM MTDIA, 4 days, with or without 20 μM MTA",limited effects on growth
same,blocking cell growth,"PC3; PC3, 6 days, low concentrations of MTDIA",no effect at blocking cell growth
same,effect on cell growth,"DU145; DU145, 100 nM MTDIA, with 20 μM MTA",dramatic effect on cell growth
same,effect on cell growth,"DU145; DU145, 100 nM MTDIA, without MTA",little to no effect
same,effect on growth,"DU145; DU145, 100 nM MTDIA, 4 days, with or without 20 μM MTA",limited effects on growth
same,blocking cell growth,"DU145; DU145, 6 days, low concentrations of MTDIA",no effect at blocking cell growth
same,IC50,"DU145; DU-145, 96 h, DU145, 4 days, 0 μM MTA",> 1000 µM
same,IC50,"DU145; DU-145, 96 h, DU145, 4 days, 10 μM MTA",> 1000 µM
same,IC50,"DU145; DU-145, 96 h, DU145, 4 days, 20 μM MTA",> 1000 µM
same,IC50,"DU145; DU-145, 192 h, DU145, 8 days, 0 μM MTA",> 1000 µM
same,IC50,"DU145; DU-145, 192 h, DU145, 8 days, 10 μM MTA",0.022 µM
same,IC50,"DU145; DU-145, 192 h, DU145, 8 days, 20 μM MTA",590 µM
same,IC50,"DU145; DU-145, 288 h, DU145, 12 days, 0 μM MTA",> 1000 µM
same,IC50,"DU145; DU-145, 288 h, DU145, 12 days, 10 μM MTA",0.014 µM
same,IC50,"DU145; DU-145, 288 h, DU145, 12 days, 20 μM MTA",0.01 µM
same,IC50,"DU145; DU-145, 288 h, DU145, 12 days, with 10 or 20 μM MTA",0.01 to 0.1 µM
same,IC50,FaDu cells,~0.05 µM
same,MTAP expression,MTAP [1],downregulates MTAP
same,MTAP expression,MTAP [2],upregulate expression of MTAP
same,MTAP expression,MTAP [3],upregulate expression of MTAP
same,sensitivity to MTDIA when SAT1 is overexpressed,LNG53 cells,much more sensitive
same,effective concentration,[4],~10 nM
same,effective concentration,[5],~100 nM
